Target: T1, thrombin (Bos taurus, UniProt P00735)
T1 construct: purchased Mochida Pharmaceutical Co., Ltd
Assay: fibrinogen coagulation time
Format: biochemical
Settings: bovine fibrinogen, thrombin 5 units/ml, borate saline buffer pH 7.4, 25° C; control coagulation time 50-55 seconds
Protocol: The measurement of the fibrinogen coagulation time was conducted as follows:
Immediately after mixing, the reaction mixture was transferred from the ice bath to a bath maintained at 25° C. Coagulation times were taken as the period between the time of transference to the 25° C bath and the time of the first appearance of fibrin threads.
The term "concentration required to prolong the coagulation time by a factor of two" is the concentration of an active ingredient required to prolong the normal coagulation time 50-55 seconds to 100-110 seconds.

Row | SMILES | Concentration required to prolong the coagulation time by a factor of two [µM]
1 | CCCCCN(C(=O)[C@H](CCCNC(=N)N)NS(=O)(=O)c1ccc2cc(OC)c(OC)cc2c1)[C@@H](C)C(=O)O [Sample 4, N^2-(6,7-dimethoxy-2-naphthylsulfonyl)-L-arginyl-N-pentylalanine] | 2.0
2 | COc1cc2ccc(S(=O)(=O)N[C@@H](CCCNC(=N)N)C(=O)N(Cc3ccccc3)[C@@H](C)C(=O)O)cc2cc1OC [Sample 6, N^2-(6,7-dimethoxy-2-naphthylsulfonyl)-L-arginyl-N-benzylalanine] | 2.5
3 | COc1cc2ccc(S(=O)(=O)N[C@@H](CCCNC(=N)N)C(=O)N(CCc3ccccc3)[C@@H](C)C(=O)O)cc2cc1OC [Sample 8, N^2-(6,7-dimethoxy-2-naphthylsulfonyl)-L-arginyl-N-phenethylalanine] | 1.5
4 | COc1ccc2cc(S(=O)(=O)N[C@@H](CCCNC(=N)N)C(=O)N(CC3CCCCC3)[C@@H](C)C(=O)O)cc(OC)c2c1 [Sample 12, N^2-(4,6-dimethoxy-2-naphthylsulfonyl)-L-arginyl-N-cyclohexylmethylalanine] | 4.5
5 | COCCN(C(=O)[C@H](CCCNC(=N)N)NS(=O)(=O)c1ccc2cc(OC)c(OC)cc2c1)[C@@H](C)C(=O)O [Sample 15, N^2-(6,7-dimethoxy-2-naphthylsulfonyl)-L-arginyl-N-(2-methoxyethyl)alanine] | 5
6 | COc1cc2ccc(S(=O)(=O)N[C@@H](CCCNC(=N)N)C(=O)N(C)[C@@H](Cc3ccccc3)C(=O)O)cc2cc1OC [Sample 18, N^2-(6,7-dimethoxy-2-naphthylsulfonyl)-L-arginyl-N-methylphenylalanine] | 2
7 | COc1ccc2ccc(S(=O)(=O)N[C@@H](CCCNC(=N)N)C(=O)N(C)[C@@H](Cc3ccccc3)C(=O)O)cc2c1 [Sample 20, N^2-(7-methoxy-2-naphthylsulfonyl)-L-arginyl-N-methylphenylalanine] | 2.5
8 | CCC[C@H](NC(=O)[C@H](CCCNC(=N)N)NS(=O)(=O)c1ccc2cc(OC)c(OC)cc2c1)C(=O)O [Sample 21, N^2-(6,7-dimethoxy-2-naphthylsulfonyl)-L-arginylnorvaline] | 15

Tested on: mice
Assay: acute toxicity (LD50), intraperitoneal administration in mice
Format: in vivo
Settings: mice (male, 20 g)
Text: Representative LD50 values, for example, for N^2 -(6,7-dimethoxy-2-naphthylsulfonyl)-L-arginyl-N-butylalanine and N^2 -(4,6-dimethoxy-2-naphthylsulfonyl)-L-arginyl-N-cyclohexylmethylalanine are above 1,500 milligrams per kilogram each.

Row | SMILES | acute toxicity LD50
9 | CCCCNC(=O)[C@H](CCCNC(=N)N)NS(=O)(=O)c1cccc2c(N(C)C)cccc12 [N^2 -dansyl-N-butyl-L-argininamide, reference compound] | 75 milligrams per kilogram
10 | CCCCN(C)C(=O)[C@H](CCCNC(=N)N)NS(=O)(=O)c1cccc2c(N(C)C)cccc12 [N^2 -dansyl-N-methyl-N-butyl-L-argininamide, reference compound] | 70 milligrams per kilogram
11 | CCCCN(C(=O)[C@H](CCCNC(=N)N)NS(=O)(=O)c1ccc2cc(OC)c(OC)cc2c1)[C@@H](C)C(=O)O [Sample 2, N^2-(6,7-dimethoxy-2-naphthylsulfonyl)-L-arginyl-N-butylalanine] | above 1,500 milligrams per kilogram
12 | COc1ccc2cc(S(=O)(=O)N[C@@H](CCCNC(=N)N)C(=O)N(CC3CCCCC3)[C@@H](C)C(=O)O)cc(OC)c2c1 [Sample 12, N^2-(4,6-dimethoxy-2-naphthylsulfonyl)-L-arginyl-N-cyclohexylmethylalanine] | above 1,500 milligrams per kilogram

— US4069317A, “N^2 -Arylsulfonyl-L-argininamides and the pharmaceutically acceptable salts thereof” (Mitsubishi Chemical Industries Ltd., priority 1974, dated 1978)
